According to patent US20130225641A1, “ANTICANCER COMPOUNDS AND PREPARATION METHODS THEREOF” (priority 2010, published 2013):

How the values were obtained:
LnCAP = experiment: MTT cytotoxicity, LnCAP; type: cell-based; conditions: Homo sapiens, Prostatic, 72 hrs, read-out: LC50 (the source's name)
Method: (§1) The cytotoxicity of ZTP and ZTQ was analyzed by using human tumor cell lines. Human tumor cell lines were purchased from ATCC and NCI, and cultured in DMEM medium containing 10% FBS at 37° C. in 5% CO2 in an incubator. The cells grown to confluence were used for cytotoxicity analysis. The cells were digested with trypsin, washed with the culture medium, and then counted. 33 tumor cell lines were cultured. The cells were seeded at a density of 3000-6000 cells/well in a 96-well plate and incubated for 16-24 hrs. Then, various concentrations of ZTP or ZTQ dissolved in DMSO were added, and cultured for 72 hrs. The drug-treated cells and control cells were analyzed by MTT.

ACHN = experiment: MTT cytotoxicity, ACHN; type: cell-based; conditions: Homo sapiens, Renal, 72 hrs, read-out: LC50 (the source's name)
Method: as §1

D145 = experiment: MTT cytotoxicity, D145; type: cell-based; conditions: Homo sapiens, D145, Prostatic, 72 hrs, read-out: LC50 (the source's name)
Method: as §1

VEGFR protein kinase = experiment: Inhibition of VEGFR protein kinase activity (phosphorylated VEGFR, western blotting) in HUMEC cells; type: cell-based, human; conditions: 1 hour treatment, phosphorylated VEGFR level, read-out: median inhibitory concentration (IC50) for inhibiting the activity of VEGFR protein kinase
Excerpt: VEGFR is a vascular endothelial growth factor receptor regulating the growth, migration, and differentiation of vascular endothelial cells, and determining the start of angiogenesis of tumors. After being stimulated by vascular endothelial cell growth factors, VEGFR forms a dimer, activates its kinase, and makes themselves phosphorylated. The level of the activity of VEGFR protein kinase is detected according to the phosphorylated degree of VEGFR. In this test, we used human microvascular endothelial cells (HUMECs) to determine whether ZTP and ZTQ can inhibit the activity of VEGFR protein kinase. HUMEC cells were subjected to adherent growth in DMEM medium (GIBCO-BRL) containing 10% bovine calf serum at 37° C. in 5% CO2. The cells were treated with various concentrations of ZTP and ZTQ (0, 10 ng/ml, 100 ng/ml, 500 ng/ml, 1 μg/ml, and 10 μg/ml), and the cell proteins were collected 1 hour after treatment. The protein content was determined through Bradford method, and then the level of phosphorylated VEGFR was assayed through western blotting. Immunoblotting experiment: denatured polyacrylamide gel was used for separation of the proteins with a sample load of 60 μg of total proteins. The proteins were electro-transferred onto a PVDF membrane and blocked. […] The membrane was exposed to an X-ray film, and the results were analyzed by a gel imaging system. […]

BT-549 = experiment: MTT cytotoxicity, BT-549; type: cell-based; conditions: Homo sapiens, BT-549, Breast, 72 hrs, read-out: LC50 (the source's name)
Method: as §1

[1] = test system: human lung cancer cells (NCI-H23); experiment: Transplantation model of human lung cancer (NCI-H23) in nude mice; type: in vivo, nude mice (nu/nu); conditions: NCI-H23 subcutaneous in nude mice; oral daily 5 days/week, 3 weeks; ZTP 30 mg/kg, ZTQ 60 mg/kg; lower = stronger
Method: T-cell deficient nude mice (nu/nu) of 6 weeks old were purchased from Charles River Laboratory, and housed and treated in a sterile environment following Institutional Animal Care & Use Committee Program. 48 mice were respectively subcutaneously inoculated on ribbed belly with 5×10^6 human liver cancer cells (HepG3B), human lung caner cells (NCI-H23), and human colon cancer cells (HCT-116) suspended in 0.2 ml HBSS/matrigel (50:50, V/V). When the tumor grew to have an average diameter of 7-8 mm and a volume of about 100-200 mm^3, 24 mice were picked up, and assigned to treatment groups (16 animals/2 groups), and a control group (8 animals). The 2 treatment groups were administered with the compounds ZTP and ZTQ dissolved in 15% Captsol respectively at a dose of 30 mg/kg and 60 mg/kg, and the control group only received an excipient (15% Captsol).
The same number of mice of each type was assigned to the control group and the treatment groups with the compounds ZTP and ZTQ respectively.
The dose schedule of the test compounds in the tumor transplanted nude mice was as follows: the compounds ZTP and ZTQ dissolved in 15% Captsol were daily orally administered as a 200 μl solution containing 0.75 mg of ZTP and 1.5 mg of ZTQ for 5 days/week over 3 consecutive weeks, followed by one-week break; and the control group was only administered with 200 μl of the placebo (15% Captsol) for 3 weeks, followed by 1 week of break. The two groups of animals were housed separately, and allowed to free access to food.
Evaluation of antitumor effect: the tumor size was measured every 3 or 4 days. The tumor volume was calculated using the equation below: […], in which a denotes the width (the shorter diameter), and b denotes the length (the longer diameter). Relative tumor volume (RTV) of each tumor refers to the ratio of the volume at a specified time to that at the beginning of the treatment. The average RTV for each treatment group was calculated. The antitumor activity was determined by calculating the tumor growth inhibition using a formula below. […]

SN12C = experiment: MTT cytotoxicity, SN12C; type: cell-based; conditions: Homo sapiens, Renal, 72 hrs, read-out: LC50 (the source's name)
Method: as §1

MDA-MB-231 = experiment: MTT cytotoxicity, MDA-MB-231; type: cell-based; conditions: Homo sapiens, MDA-MB-231, Breast, 72 hrs, read-out: LC50 (the source's name)
Method: as §1

IGROV1 = experiment: MTT cytotoxicity, IGROV1; type: cell-based; conditions: Homo sapiens, IGROV-1, IGROV1, Ovarian, 72 hrs, read-out: LC50 (the source's name)
Method: as §1

CCL-225 = experiment: MTT cytotoxicity, CCL-225; type: cell-based; conditions: Homo sapiens, CCL-225, Colonic, 72 hrs, read-out: LC50 (the source's name)
Method: as §1

SKOV3 = experiment: MTT cytotoxicity, SKOV3; type: cell-based; conditions: Homo sapiens, SK-OV-3, SKOV3, Ovarian, 72 hrs, read-out: LC50 (the source's name)
Method: as §1

G-361 = experiment: MTT cytotoxicity, G-361; type: cell-based; conditions: Homo sapiens, G-361, Skin (melanoma), 72 hrs, read-out: LC50 (the source's name)
Method: as §1

Row | SMILES | CC50 (LnCAP) [nM] | CC50 (ACHN) [nM] | CC50 (D145) [nM] | IC50 (VEGFR protein kinase) [nM] | CC50 (BT-549) [nM] | TGI (T/C×100) [1] [%] | CC50 (SN12C) [nM] | CC50 (MDA-MB-231) [nM] | CC50 (IGROV1) [nM] | CC50 (CCL-225) [nM] | CC50 (SKOV3) [nM] | CC50 (G-361) [nM]
1 | CNC(=O)c1cc(Oc2ccc(NC(=S)Nc3ccc(Cl)c(C(F)(F)F)c3)cc2)ccn1 [ZTP, N-[4-chloro-3-(trifluoromethyl)phenyl]-[4-(N-methyl-formamide)(4-pyridyloxy)phenyl]-thiourea] | 1050 | 1610 | 1590 | 21 | 1090 | 10 | 3210 | 1190 | 920 | 1980 | 1190 | 1910
2 | CNC(=O)c1cc(Sc2ccc(NC(=S)Nc3ccc(Cl)c(C(F)(F)F)c3)cc2)ccn1 [ZTQ, N-[4-chloro-3-(trifluoromethyl)phenyl]-[4-(N-methyl-formamide)(4-pyridylthio)phenyl]-thiourea] | 820 | 1210 | 1230 | 9 | 890 | 9.21 | 2200 | 1030 | 730 | 1430 | 980 | 1360
